Read-outs that look alike come from different tables or passages of the source.
Tested on: Escherichia coli (ECO) isolates
Assay: MIC of compounds alone and combined with antibacterials, broth microdilution (CLSI)
Format: cell-based
How it was run: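 First, log-phase suspensions are brought to a final 5·10^5 CFU/mL in cation-adjusted Mueller-Hinton broth. Then plates with compound, antibacterial, or both incubate 16-20 h at 35° C under ambient air. Finally, visual inspection gives the lowest growth-preventing concentration for each agent.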

Compound: C=CC1=C(C(=O)O)N2C(=O)[C@@H](NC(=O)/C(=N\OCC(=O)O)c3csc(N)n3)[C@H]2SC1 [FIX, Cefixime]
- MIC ATB in combination: >128 µg/mL
- MIC ATB in combination (ECO 4133, AF1 @ 4 μg/mL): <=0.25 μg/mL
- MIC ATB in combination (ECO 4133, AF1 @ 8 μg/mL): <=0.25 μg/mL
- MIC ATB in combination (ECO 5302, AF1 @ 4 μg/mL): <=0.25 μg/mL
- MIC ATB in combination (ECO 5302, AF1 @ 8 μg/mL): <=0.25 μg/mL
- MIC ATB in combination (ECO 131119, AF1 @ 4 μg/mL): <=0.25 μg/mL
- MIC ATB in combination (ECO 131119, AF1 @ 8 μg/mL): <=0.25 μg/mL
- MIC ATB in combination (ECO 180070, AF1 @ 4 μg/mL): <=0.25 μg/mL
- MIC ATB in combination (ECO 180070, AF1 @ 8 μg/mL): <=0.25 μg/mL
- MIC ATB in combination (ECO 190314, AF1 @ 4 μg/mL): <=0.25 μg/mL
- MIC ATB in combination (ECO 190314, AF1 @ 8 μg/mL): <=0.25 μg/mL
- MIC ATB in combination (ECO 190317, AF1 @ 4 μg/mL): <=0.25 μg/mL
- MIC ATB in combination (ECO 190317, AF1 @ 8 μg/mL): <=0.25 μg/mL
- MIC ATB in combination (ECO 190457, AF1 @ 8 μg/mL): 0.031 µg/mL
- MIC ATB in combination (ECO 190549, AF1 @ 4 μg/mL): <=0.25 μg/mL
- MIC ATB in combination (ECO 190549, AF1 @ 8 μg/mL): <=0.25 μg/mL
- MIC ATB in combination (ECO 200159, AF1 @ 4 μg/mL): <=0.25 μg/mL
- MIC ATB in combination (ECO 200159, AF1 @ 8 μg/mL): <=0.25 μg/mL
- MIC ATB in combination (ECO 200259, AF1 @ 4 μg/mL): <=0.25 μg/mL
- MIC ATB in combination (ECO 200259, AF1 @ 8 μg/mL): <=0.25 μg/mL
- MIC ATB in combination (ECO 200344, AF1 @ 4 μg/mL): <=0.25 μg/mL
- MIC ATB in combination (ECO 200344, AF1 @ 8 μg/mL): <=0.25 μg/mL
- MIC ATB in combination (ECO 260096, AF1 @ 4 μg/mL): <=0.25 μg/mL
- MIC ATB in combination (ECO 260096, AF1 @ 8 μg/mL): <=0.25 μg/mL
- MIC ATB in combination (ECO 260304, AF1 @ 4 μg/mL): <=0.25 μg/mL
- MIC ATB in combination (ECO 260304, AF1 @ 8 μg/mL): <=0.25 μg/mL
- MIC ATB in combination (ECO 260508, AF1 @ 4 μg/mL): <=0.25 μg/mL
- MIC ATB in combination (ECO 260508, AF1 @ 8 μg/mL): <=0.25 μg/mL
- MIC ATB in combination (ECO RGN238, AF1 @ 4 μg/mL): <=0.25 μg/mL
- MIC ATB in combination (ECO RGN238, AF1 @ 8 μg/mL): <=0.25 μg/mL
- MIC ATB in combination (ECO UFR15, AF1 @ 4 μg/mL): <=0.25 μg/mL
- MIC ATB in combination (ECO UFR15, AF1 @ 8 μg/mL): <=0.25 μg/mL
- MIC ATB in combination (ECO UFR16, AF1 @ 4 μg/mL): <=0.25 μg/mL
- MIC ATB in combination (ECO UFR16, AF1 @ 8 μg/mL): <=0.25 μg/mL
- MIC ATB in combination (ECO UFR17, AF1 @ 8 μg/mL): 16 µg/mL
- MIC ATB in combination (ECO UFR18, AF1 @ 4 μg/mL): 16 µg/mL
- MIC ATB in combination (ECO UFR18, AF1 @ 8 μg/mL): 0.5 µg/mL
- MIC ATB in combination (ECO UFR19, AF1 @ 4 μg/mL): 16 µg/mL
- MIC ATB in combination (ECO UFR19, AF1 @ 8 μg/mL): <0.25 µg/mL
- MIC ATB in combination (ECO UFR20, AF1 @ 4 μg/mL): 1 µg/mL
- MIC ATB in combination (ECO UFR20, AF1 @ 8 μg/mL): 1 µg/mL
- MIC ATB in combination (ECO UFR61O, AF1 @ 4 μg/mL): 0.25 µg/mL
- MIC ATB in combination (ECO UFR62, AF1 @ 4 μg/mL): <=0.25 μg/mL
- MIC ATB in combination (ECO UFR62, AF1 @ 8 μg/mL): <=0.25 μg/mL
- MIC ATB in combination (ECO UFR74, AF1 @ 4 μg/mL): 32 µg/mL
- MIC ATB in combination (ECO UFR74, AF1 @ 8 μg/mL): 1 µg/mL
- MIC ATB in combination (ECO UFR86, AF1 @ 4 μg/mL): 0.5 µg/mL
- MIC ATB in combination (ECO UFR86, AF1 @ 8 μg/mL): <=0.25 μg/mL
- MIC ATB in combination (ECO UFR174, AF1 @ 4 μg/mL): <=0.25 μg/mL
- MIC ATB in combination (ECO UFR174, AF1 @ 8 μg/mL): <0.25 µg/mL
- MIC ATB in combination (ECO UFR175, AF1 @ 4 μg/mL): <=0.25 μg/mL
- MIC ATB in combination (ECO UFR175, AF1 @ 8 μg/mL): <=0.25 μg/mL
- MIC ATB in combination (ECO UFR176, AF1 @ 4 μg/mL): <=0.25 μg/mL
- MIC ATB in combination (ECO UFR176, AF1 @ 8 μg/mL): <=0.25 μg/mL
- MIC ATB in combination (ECO UFR184, AF1 @ 4 μg/mL): 8 µg/mL
- MIC ATB in combination (ECO UFR184, AF1 @ 8 μg/mL): <=0.25 μg/mL
- MIC ATB in combination (ECO UFR185, AF1 @ 4 μg/mL): 4 µg/mL
- MIC ATB in combination (ECO UFR185, AF1 @ 8 μg/mL): <0.25 µg/mL
- MIC ATB in combination (ECO UFR186, AF1 @ 4 μg/mL): <=0.25 μg/mL
- MIC ATB in combination (ECO UFR186, AF1 @ 8 μg/mL): <=0.25 μg/mL
- MIC ATB in combination (ECO UFR187, AF1 @ 4 μg/mL): <=0.25 μg/mL
- MIC ATB in combination (ECO UFR187, AF1 @ 8 μg/mL): <=0.25 μg/mL
- MIC ATB in combination (ECO UFR189, AF1 @ 4 μg/mL): <=0.25 μg/mL
- MIC ATB in combination (ECO UFR189, AF1 @ 8 μg/mL): <=0.25 μg/mL
- MIC ATB in combination (ECO UFR190, AF1 @ 4 μg/mL): <=0.25 μg/mL
- MIC ATB in combination (ECO UFR190, AF1 @ 8 μg/mL): <=0.25 μg/mL
- MIC ATB in combination (ECO UFR191, AF1 @ 4 μg/mL): <=0.25 μg/mL
- MIC ATB in combination (ECO UFR191, AF1 @ 8 μg/mL): <=0.25 μg/mL
- MIC ATB in combination (ECO UFR207, AF1 @ 4 μg/mL): <=0.25 μg/mL
- MIC ATB in combination (ECO UFR207, AF1 @ 8 μg/mL): <=0.25 μg/mL
- MIC ATB in combination (ECO UFR208, AF1 @ 4 μg/mL): 64 µg/mL
- MIC ATB in combination (ECO UFR208, AF1 @ 8 μg/mL): 32 µg/mL
- MIC ATB in combination (ECO UFR209, AF1 @ 8 μg/mL): 0.063 µg/mL
- MIC ATB in combination (ECO UFR210, AF1 @ 4 μg/mL): <=0.25 μg/mL
- MIC ATB in combination (ECO UFR210, AF1 @ 8 μg/mL): <=0.25 μg/mL
- MIC ATB in combination (ECO UFR211, AF1 @ 4 μg/mL): <=0.25 μg/mL
- MIC ATB in combination (ECO UFR211, AF1 @ 8 μg/mL): <=0.25 μg/mL
- MIC ATB in combination (ECO UFR212, AF1 @ 4 μg/mL): 64 µg/mL
- MIC ATB in combination (ECO UFR212, AF1 @ 8 μg/mL): <=0.25 μg/mL
- MIC ATB in combination (ECO UFR218, AF1 @ 4 μg/mL): <=0.25 μg/mL
- MIC ATB in combination (ECO UFR218, AF1 @ 8 μg/mL): <=0.25 μg/mL
- MIC (Escherichia coli, ECO 190317, alone, read-out: MIC): > 128 µg/mL

Source: patent US20200017496A1 (priority 2017, published 2020)
